For data set [1], the target named is T1, Proteinase-activated receptor 1 (Homo sapiens, UniProt P25116).
T1 sequence (P25116 whole entry): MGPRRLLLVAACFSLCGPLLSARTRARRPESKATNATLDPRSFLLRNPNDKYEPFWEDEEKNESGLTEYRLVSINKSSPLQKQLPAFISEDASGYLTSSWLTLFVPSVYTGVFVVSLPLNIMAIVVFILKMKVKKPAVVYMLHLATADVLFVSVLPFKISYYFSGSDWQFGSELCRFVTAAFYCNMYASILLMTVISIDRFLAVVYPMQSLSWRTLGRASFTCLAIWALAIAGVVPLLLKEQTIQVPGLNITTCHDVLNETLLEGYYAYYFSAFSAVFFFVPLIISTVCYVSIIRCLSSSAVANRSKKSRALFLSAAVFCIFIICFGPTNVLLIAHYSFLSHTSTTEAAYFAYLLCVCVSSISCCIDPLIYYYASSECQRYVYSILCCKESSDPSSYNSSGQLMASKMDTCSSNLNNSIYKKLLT
Description: Displacement of [3H]haTRAP from PAR1.

The nature of data set [2]: AUC in cynomolgus monkey at 3 mg/kg, po. Also noted: dose 3 mg/kg, route oral. Conditions: plasma. Format: ADME, organism-based, Macaca fascicularis.
Data set [3] can be described thus: AUC (0 to 6 hrs) in rat. Conditions: plasma. Also noted: time < 6 hr; concentration or dose not given beside the values. Format: ADME, organism-based.
In data set [4] the test system is Cynomolgus monkey. Description: Inhibition of platelet aggregation in cynomolgus monkey after 24 hrs. Format: functional, Macaca fascicularis.
The test system of data set [5] is Cynomolgus monkey. Description: Inhibition of platelet aggregation in cynomolgus monkey at 2 mg/kg, po after 24 hrs. Format: functional, organism-based. Also noted: dose 2 mg/kg. Conditions: Macaca fascicularis.
Data set [6] is described as follows: AUC (0 to 24 hrs) in cynomolgus monkey at 1 mg/kg, po. Conditions: plasma. Further details: time < 24 hr, dose 1 mg/kg, route oral. Format: ADME, organism-based, Macaca fascicularis.
Data set [7] has as its system Proteinase-activated receptor 1 (Homo sapiens). Description: Dissociation half-life from PAR-1 receptor.
The test system of data set [8] is Cynomolgus monkey. Description: Inhibition of platelet aggregation in cynomolgus monkey at 3 mg/kg, po. Format: functional, organism-based. Particulars: Macaca fascicularis. Further details: dose 3 mg/kg.
For data set [9], the system named is Cynomolgus monkey. Description: Inhibition of platelet aggregation in cynomolgus monkey at 3 mg/kg, po upto 5 hrs. Format: functional, organism-based. Also noted: dose 3 mg/kg. Particulars: Macaca fascicularis.

Activity calls are given as the source filed them. The rule behind the calls is not given here.

Broadly, the IC50 is the midpoint of a concentration-inhibition curve. With `O=C1OC[C@H]2[C@@H]1Cc1cccc(F)c1[C@@H]2/C=C/c1ccc(-c2cccc(F)c2)cn1` (racemic), the IC50 in data set [1] worked out at 85.5 nM.
Broadly, the AUC is the area under the concentration-time curve, a measure of exposure. `O=C1OC[C@H]2[C@@H]1Cc1ccccc1[C@@H]2/C=C/c1ccc(-c2cccc(C(F)(F)F)c2)cn1` displayed an AUC in data set [2] of under 300 ng·h/mL. In [1], this compound came in with an IC50 of 10 nM.
`O=C1OC[C@H]2[C@@H]1Cc1ccc(Cl)cc1[C@@H]2/C=C/c1ccc(-c2cccc(C(F)(F)F)c2)cn1` (racemic) registered a half-maximal inhibitory concentration (IC50) in data set [1] of 138 nM.
The AUC(0-t) is exposure summed from dosing to a finite time, without extrapolation to infinity. In [1], `O=C1OC[C@H]2[C@@H]1Cc1c(F)cccc1[C@@H]2/C=C/c1ccc(-c2cccc(F)c2)cn1` gave a half-maximal inhibitory concentration (IC50) of 20.5 nM. Moreover, in data set [3], the AUC(0-t) at 6 h came out at 4590 ng·h/mL.
What is called Inhibition is the percentage by which the read-out fell short of the control. As for `O=C1OC[C@H]2[C@@H]1Cc1cc(F)ccc1[C@@H]2/C=C/c1ccc(-c2cccc(Cl)c2)cn1`, the IC50 in [1] came out at 13 nM. For the same compound, the AUC(0-t) at 6 h in [3] stood at 3700 ng·h/mL. Further, the Inhibition with Cynomolgus monkey [4] was 60%.
For `O=C1OC[C@H]2[C@@H]1Cc1c(Cl)cccc1[C@@H]2/C=C/c1ccc(-c2cccc(C(F)(F)F)c2)cn1` (racemic), in data set [1], the IC50 was 225 nM.
Same read-out and setting: next, `O=C1OC[C@H]2[C@H](/C=C/c3ccccn3)c3ccccc3C[C@@H]12`: 12000 nM; `O=C1OC[C@H]2[C@@H]1Cc1c(Cl)cccc1[C@@H]2/C=C/c1ccc(-c2cccc(Cl)c2)cn1` (racemic): 328 nM.
For `O=C1OC[C@H]2[C@@H]1Cc1cccc(F)c1[C@@H]2/C=C/c1ccc(-c2cccc(Cl)c2)cn1` (racemic), the IC50 in data set [1] is 330 nM.
On the same count and under the same terms, in the case of `O=C1OC[C@H]2[C@@H]1Cc1ccc(Cl)cc1[C@@H]2/C=C/c1ccc(-c2cccc(Cl)c2)cn1` (racemic) it was 120 nM.
As for `O=C1OC[C@H]2[C@@H]1Cc1ccc(F)cc1[C@@H]2/C=C/c1ccc(-c2cccc(F)c2)cn1`, the IC50 in data set [1] was 10 nM. Moreover, the AUC(0-t) at 6 h in data set [3] came out at 5050 ng·h/mL.
With `COc1ccc2nc(/C=C/[C@H]3c4ccccc4C[C@@H]4C(=O)O[C@@H](C)[C@@H]43)ccc2c1`, the IC50 in data set [1] worked out at 9170 nM.
The same measure, in the same setting: in the case of `COc1ccc2nc(/C=C/[C@@H]3c4ccccc4C[C@H]4C(=O)OC[C@@H]34)ccc2c1` (racemic) it was 12.5 nM.
With `COc1ccc2nc(/C=C/[C@H]3c4ccccc4C[C@@H]4C(=O)O[C@H](C)[C@@H]43)ccc2c1`, the IC50 in data set [1] came out at 90 nM.
The compound `COc1ccc2nc(/C=C/[C@@H]3c4ccccc4C[C@H]4C(=O)OC(C)(C)[C@@H]34)ccc2c1` (racemic) displayed an IC50 in [1] of 225 nM.
Turning to `O=C1OC[C@H]2[C@@H]1Cc1c(ccc(F)c1F)[C@@H]2/C=C/c1ccc(-c2cccc(F)c2)cn1`, the IC50 in [1] came to 7 nM.
Regarding `O=C1OC[C@H]2[C@@H]1Cc1c(F)cccc1[C@@H]2/C=C/c1ccc(-c2cccc(Cl)c2)cn1`, in data set [1], the IC50 stood at 29 nM.
In the case of `O=C1OC[C@H]2[C@@H]1Cc1c(Cl)cccc1[C@@H]2/C=C/c1ccc(-c2cccc(F)c2)cn1` (racemic), in [1], the IC50 amounted to 63.5 nM.
In [1], `O=C1OC[C@H]2[C@@H]1Cc1ccc(F)cc1[C@@H]2/C=C/c1ccc(-c2cccc(C(F)(F)F)c2)cn1` registered an IC50 of 31.5 nM.
`O=C1OC[C@H]2[C@@H]1Cc1ccc(F)cc1[C@@H]2/C=C/c1ccc(-c2cccc(Cl)c2)cn1` came in with an IC50 in data set [1] of 10 nM. The compound also registered an AUC(0-t) at 6 h in [3] of 6720 ng·h/mL.
Compound `O=C1OC[C@H]2[C@@H]1Cc1ccc(Cl)cc1[C@@H]2/C=C/c1ccc(-c2cccc(F)c2)cn1` yielded an IC50 in [1] of 14.5 nM.
Same read-out and setting: next, `O=C1OC[C@H]2[C@@H]1Cc1c(F)cc(F)cc1[C@@H]2/C=C/c1ccc(-c2cccc(C(F)(F)F)c2)cn1`: 21.5 nM.
On to `O=C1OC[C@H]2[C@@H]1Cc1cc(F)ccc1[C@@H]2/C=C/c1ccc(-c2cccc(F)c2)cn1`, for which the result in the data set with Cynomolgus monkey [5] was Active. This compound also yielded an AUC(0-t) at 24 h in [6] of 6200 ng·h/mL. This compound also returned a dissociation half-life in data set [7] of 2.32 h. The compound also returned an IC50 in data set [1] of 7.6 nM. The same compound showed an AUC(0-t) at 6 h in data set [3] of 3960 ng·h/mL.
`O=C1OC[C@H]2[C@@H]1Cc1c(F)cccc1[C@@H]2/C=C/c1ccc(-c2cccc(C(F)(F)F)c2)cn1` (racemic) came in with an IC50 in [1] of 65 nM.
Regarding `COc1ccc2nc(/C=C/[C@@H]3c4ccccc4C[C@H]4C(=O)O[C@H](C)[C@@H]34)ccc2c1`, the IC50 in data set [1] was determined as 580 nM.
Compound `O=C1OC[C@H]2[C@@H]1Cc1c(ccc(F)c1F)[C@@H]2/C=C/c1ccc(-c2cccc(Cl)c2)cn1` displayed an IC50 in data set [1] of 15.5 nM. In data set [3], this compound registered an AUC(0-t) at 6 h of 264 ng·h/mL. Also, the result with Cynomolgus monkey [8] was inactive.
Turning to `COc1ccc2nc(/C=C/[C@@H]3c4ccccc4C[C@H]4C(=O)O[C@@H](C)[C@@H]34)ccc2c1`, in data set [1], the IC50 was found to be 3140 nM.
For the compound `O=C1OC[C@H]2[C@@H]1Cc1ccccc1[C@@H]2/C=C/c1ccc(-c2cccc(Cl)c2)cn1`, the AUC in data set [2] is 6300 ng·h/mL. Moreover, the IC50 in [1] stood at 14.5 nM. In the data set on Cynomolgus monkey [9], the result was Active.
In data set [1], `O=C1OC[C@H]2[C@@H]1Cc1c(F)cc(F)cc1[C@@H]2/C=C/c1ccc(-c2cccc(Cl)c2)cn1` (racemic) registered an IC50 of 46.5 nM.
In [2], `O=C1OC[C@H]2[C@@H]1Cc1ccccc1[C@@H]2/C=C/c1ccc(-c2cccc(F)c2)cn1` came in with an AUC of under 300 ng·h/mL. The IC50 in data set [1] was found to be 7.5 nM.

For the origin of these results see ChEMBL document CHEMBL1148878, “Himbacine derived thrombin receptor antagonists: discovery of a new tricyclic core” (Bioorg Med Chem Lett, 2007).
